This is an account of results in publication PMC6747051, “Screening of Antiviral Components of Ma Huang Tang and Investigation on the Ephedra Alkaloids Efficacy on Influenza Virus Type A” (Frontiers in Pharmacology, 2019).

One series concerns MDCK cells. The note with it: dog.
Series [1] relates to influenza A virus. The note with it: for cell viability rate: dog.
Series [2] has as its system influenza A virus. The series is described as follows: microbe, parasite or virus in culture. The note with it: MDCK, 48 h, read-out: Cell survival rate.
Series [3] has as its system influenza A virus (A PR/8/34). Kind of series: Lung index of influenza A virus-infected mice. The series is classed as in vivo, ICR mice. The procedure: (§1) A total of 108 ICR mice were randomly divided into the control uninfected group, the control infected group, oseltamivir group, LEP-treated groups and DPEP-treated groups; 12 mice were designed in each group. Except for the mice in the control uninfected group, others were anaesthetized with ethyl ether and intranasally infected with 10LD50 influenza A virus (A PR/8/34) in a volume of 50 μl PBS to induce viral pneumonia. […] Meanwhile, the control uninfected group and the control infected group were only given saline with the same volume. […] The adult daily dose was converted into the high dose of mice, which was about 40 mg/kg. Based on the high dose of the drug, the medium and low doses were set.
(§2) In the 3rd and 7th days after infection, to monitor the histological changes in influenza A virus-infected animals, six mice were sacrificed randomly in each group, and lung, spleen and thymus tissues were obtained and weighed after being washed with saline solution. Lung index and the inhibition ratio of the lung index were calculated as our previous report, while spleen and thymus indexes were calculated based on the following formulas ([Ling et al., 2017]).

The test system of series [4] is TLR4, TLR7, MyD88 and NF-κB p65 protein expression. More on the design: species or system ICR mice. Particulars: mouse, in vivo.
The test system of series [5] is influenza A virus. Kind of series: Viral load assay using real-time RT-PCR (M1 gene) and CPE in infected MDCK cells. The note with it: for virus load vs oseltamivir group: LMEP 31.25 μg/ml, LEP […], DPEP […]. Type of series: cell-based, influenza virus A/PR8/34 (H1N1). Background: Real-time PCR tracks product formation cycle by cycle.
Series [6] deals with IL-6, IFN-β and TNF-α levels. The series is classed as cell-based, canine.
Series [7] has as its system IL-1β, IL-6 and IL-10 in serum. The series is classed as in vivo, ICR mice. Particulars: 3rd and 7th day after infection. The method, then:
as §1
In days 3 and 7 post-infection, blood samples of six mice from each group were collected from retroorbital sinus under mild ethyl ether anesthesia before they were sacrificed, then under 4 °C they were centrifuged at 3000 rpm for 20 min to obtain serum. The levels of IL-1β, IL-6 and IL-10 in murine serum were determined by ELISA kits.

In series [8] the test system is influenza A virus (A PR/8/34). Kind of series: Spleen and thymus indexes of infected mice. Type of series: in vivo, ICR mice. The procedure: as §1, §2
Spleen index = (spleen weight/body weight)×100%;
Thymus index = (thymus weight/body weight)×100%;

Series [9] concerns TLRs signaling pathway mRNA. Type of series: cell-based, canine.
Series [10] relates to influenza A virus. Kind of series: Antiviral activity assay in vitro with four ways of drug delivery (MTT, MDCK cells). Type of series: cell-based, influenza virus A/PR8/34 (H1N1). The note with it: for EC50: Influenza A virus, MDCK.
Where [11] appears, read: 24 and 48 h after administration.

Converted amounts (≈) assume the structure as drawn. “And” between values parts separate entries of the source, which are not always exact repeats. Equal values may be shown once. “Also recorded” adds a separate entry of the source. Read-outs that look alike come from different tables or passages of the source.

In the case of `O=C1C[C@@H](c2ccc(O[C@@H]3O[C@H](CO)[C@@H](O)[C@H](O)[C@H]3O)cc2)Oc2cc(O)ccc21` [LIQ, liquiritin], in the series on MDCK cells (48 h), the TC0 turned out to be 250.00 µg/mL and the TC50 was determined as 680.77 µg/mL (≈ 1630 µM). The “effect on the cell viability after virus infection (in words)” value (from here on “effect on the cell viability”) with influenza A virus [1] is recorded as “little antiviral effect”. In addition, in the series with influenza A virus [2], the viability at 7.81 µg/mL stood at 26.6%, the viability at 31.25 µg/mL worked out at 28.4%, the viability at 125 µg/mL came out at 32.2% and the viability at 250 µg/mL is 33.7%. The viability at […] with influenza A virus [2] is 26.9% and 28%.

In the series on MDCK cells, `N#C[C@H](O[C@@H]1O[C@H](CO[C@@H]2O[C@H](CO)[C@@H](O)[C@H](O)[C@H]2O)[C@@H](O)[C@H](O)[C@H]1O)c1ccccc1` [AMY, amygdalin] displayed a TC0 of 31.25 µg/mL and a TC50 of 563.64 µg/mL (≈ 1230 µM). Further, the “effect on the cell viability” value in the series on influenza A virus [1] was “little antiviral effect”. In the series on influenza A virus [2], the viability at 0.98 µg/mL amounted to 26.2%, the viability at 1.95 µg/mL is 27%, the viability at 3.91 µg/mL turned out to be 29% and the viability at 7.81 µg/mL turned out to be 27.9%. In the series with influenza A virus [2], the viability at 31.25 µg/mL is 28.9% and the viability at […] is 28.2%.

With `CCOC(=O)C1=C[C@@H](OC(CC)CC)[C@H](NC(C)=O)[C@@H](N)C1` [Oseltamivir, reference compound], in series [3] (Day 3, 22 mg/kg by gavage), the “Inhibition ratio of lung index” value worked out at 41.27% and the Lung index came out at 0.74 ± 0.03. Also, in series [3] (Day 7, 22 mg/kg by gavage), the “Inhibition ratio of lung index” value came to 38.86% and the Lung index came to 1.18 ± 0.11. In the series on MDCK cells (48 h), this compound returned a TC0 of 100.00 µg/mL and a TC50 of 500.00 µg/mL (≈ 1600 µM). In series [4], the “protein expression levels of MyD88 and NF-κB p65 in lung tissue” value is “significantly down-regulated”; the “protein expression levels of TLR4 and TLR7 in lung tissue” value is “Decreased”. Further, the “CPE of infected MDCK cells” value with influenza A virus [5] (setting [11]) is “significantly reduce the CPE”. Besides, the “IL-6 level in cell supernatant vs control infected group” value in series [6] is “significantly higher than that in the control infected group”. In the series on influenza A virus [2], the viability at 10 µg/mL came out at 82.7%. Moreover, the IL-10 in serum result in series [7] (P < 0.01) is “accelerated the production of IL-10”. In addition, in series [7] (P < 0.01 or P < 0.05), the IL-1β in serum entry is reported as “dramatically inhibited the production of IL-1β”. The IL-6 in serum result in [7] (P > 0.05) is “slightly increased”. In [8] (Day 3, 22 mg/kg), this compound had a spleen index of 0.51 ± 0.13 and a thymus index of 0.45 ± 0.05. Moreover, in [8] (Day 7, 22 mg/kg), the spleen index is 0.49 ± 0.08 and the thymus index is 0.38 ± 0.03.

Turning to `OC/C=C/c1ccccc1` [CAO, cinnamic alcohol], in the series on MDCK cells, the TC0 is 125.00 µg/mL and the TC50 was 390.84 µg/mL (≈ 2910 µM). The “effect on the cell viability” value with influenza A virus [1] is “little antiviral effect”. Further, in the series on influenza A virus [2], the viability at 3.91 µg/mL was determined as 25%, the viability at 7.81 µg/mL stood at 25.9%, the viability at 31.25 µg/mL was 26.4% and the viability at 125 µg/mL is 32.6%. Besides, in the series on influenza A virus [2], the viability at […] was 26.7% and 29.9%.

On to `O=C(O)/C=C/c1ccccc1` [CMA, cinnamic acid], for which, in the series on influenza A virus [1], the “effect on the cell viability” value is recorded as “little antiviral effect”. For the same compound, in the series on influenza A virus [2], the viability at 1.95 µg/mL was found to be 27.7%, the viability at 3.91 µg/mL stood at 27.9%, the viability at 7.81 µg/mL is 30.9% and the viability at 31.25 µg/mL came to 33.5%. Besides, the viability at […] in the series with influenza A virus [2] was found to be 34.8%.

As for `CC1(C)[C@@H](O[C@H]2O[C@H](C(=O)O)[C@@H](O)[C@H](O)[C@H]2O[C@@H]2O[C@H](C(=O)O)[C@@H](O)[C@H](O)[C@H]2O)CC[C@]2(C)[C@H]3C(=O)C=C4[C@@H]5C[C@@](C)(C(=O)O)CC[C@]5(C)CC[C@@]4(C)[C@]3(C)CC[C@@H]12` [GA, glycyrrhizic acid], in the series with MDCK cells (48 h), the TC0 came out at 125.00 µg/mL and the TC50 is 663.74 µg/mL (≈ 807 µM). Moreover, in the series on influenza A virus [1], the “effect on the cell viability” value is listed as “slightly increase the cell viability rate, but not obviously” and the cell viability rate result is “about 47%”. Further, in the series with influenza A virus [2], the viability at 3.91 µg/mL was found to be 31.1%, the viability at 7.81 µg/mL was found to be 32.8%, the viability at 31.25 µg/mL amounted to 43% and the viability at 125 µg/mL was 47.2%. In the series with influenza A virus [2], the viability at […] was 34.4% and 46%.

In the case of `C[C@@H]([C@H](O)c1ccccc1)N(C)C` [LMEP, L-methylephedrin], in the series on MDCK cells, the TC0 turned out to be 31.25 µg/mL, the TC50 came out at 216.77 µg/mL (≈ 1210 µM) and the “cells' survival rate” value is “higher than 90%”. Further, in the series on influenza A virus [5] (setting [11]), the “CPE of infected MDCK cells” value is on record as “significantly reduce the CPE”. Moreover, in the series with influenza A virus [5] (24 h treatment, P < 0.05), the “virus load vs oseltamivir group” value was “significantly lower than that of oseltamivir group”. In addition, the “virus load vs oseltamivir group” value in the series with influenza A virus [5] (48 h treatment) is given as “no difference”. Further, the “viral load in MDCK cells vs control infected group” value in the series on influenza A virus [5] (each dose group, 24 and 48 h after administration, P < 0.01 or P < 0.05) is “significantly decreased”. In series [6], the “IL-6 level in cell supernatant vs control infected group” value is reported as “significantly higher than that in the control infected group”, the “level of IFN-β in cell supernatant vs control infected group” value is on record as “significantly increase; also recorded: increased” and the “secretion of TNF-α vs control infected group” value is given as “significantly inhibited the secretion of TNF-α”. The same compound gave a cell viability rate with influenza A virus [1] not below 70%. Besides, in the series with influenza A virus [2], the viability at 0.98 µg/mL is 57.3%, the viability at 1.95 µg/mL is 63.2%, the viability at 3.91 µg/mL worked out at 66.6% and the viability at 7.81 µg/mL worked out at 70.3%. Further, in the series on influenza A virus [2], the viability at 31.25 µg/mL is 77.8% and the viability at […] was found to be 75.1%. Also, in series [9], the “mRNA expression levels of TLR7, NF-κB p65, TLR3 and IRF3” value is “significantly reduced”; the “mRNA expression of IFN-β” value is listed as “significantly increased”; the “mRNA expression of TLR4” value is “significant decreased”; the “mRNA expression of TLR4, MyD88 and TRAF3” value was “significantly reduced”. Also, the “mRNA expression of TRAF3” value in series [9] is “significantly reduced”. For the same compound, the “antiviral effective rate (ER)” value in the series on influenza A virus [10] (31.25 μg/ml (highest concentration), post-treatment host cells after virus infection) is 63.52% and 64.16%. For the same compound, in the series on influenza A virus [10] (31.25 μg/ml, limited treatment of 1 hour during virus infection), the “antiviral effective rate (ER)” value amounted to 60.58%. In addition, the “antiviral effective rate (ER)” value with influenza A virus [10] (31.25 μg/ml, pre-treatment host cells prior to virus infection) is given as 56.94%. In addition, the “antiviral effective rate (ER)” value with influenza A virus [10] (31.25 μg/ml, pre-treatment of virus with drug) was found to be 61.48%. Further, a half-maximal response in the series on influenza A virus [10] (drug delivery way: Blocking viruses invading host cells) (EC50) required 20.4 µg/mL (≈ 114 µM). For the same compound, the EC50 (as a rule, the midpoint of the concentration-response curve) with influenza A virus [10] (drug delivery way: Directly inhibiting virus) worked out at 7.55 µg/mL (≈ 42.1 µM). This compound displayed an EC50 in the series on influenza A virus [10] (drug delivery way: Inhibiting the biosynthesis of virus) of 6.65 µg/mL (≈ 37.1 µM). In the series with influenza A virus [10] (drug delivery way: Intervening the adsorption of virus), a half-maximal effect (EC50) was put at 7.85 µg/mL (≈ 43.8 µM). The “antiviral effective rate (ER)” value in the series on influenza A virus [10] (final concentration 3.91 μg/ml) is “more than 34.00%”.
